Measured values reported in patent US20060178342A1, “Hyaluronan as a cytotoxic agent, drug pre-sensitizer and chemo-sensitizer in the treatment of disease” (priority 2001, published 2006).

Key:
[1] = system: MDA-MB 468 Breast cancer xenografts; assay: HA alone on breast cancer xenografts, metastasis, body mass and survival; format: in vivo; conditions: 12.5 mg/kg HA, three regimens; significant in 3/3 experiments
Protocol: To determine the effect of HA on tumor volume in vivo, 12.5 mg/kg of HA was administered on day 1 and 2 of a 7 day cycle for 6 cycles and 12.5 mg/kg on day 1 and 3 of 7 day cycle for 6 cycles (FIG. 9A) or 12.5 mg/kg on day 1 and 8 of 28 day cycle for 6 cycles (FIG. 9B). […] This anti-proliferative effect could be due to the degradation of the HA into apoptotic-inducing fragments and/or the microembolisation effect, which could result in tissue hypoxia and subsequent cell death.
The following table sets forth the results of the administration of HA on breast and colon cancer xenographs, metastasis, body mass and survival in vivo.

[2] = system: LIM 1215; assay: Effect of HA on cell proliferation; format: cell-based, human; conditions: 3 days constant exposure, 100 nM
Protocol: (§1) The effect of HA on the proliferation of human breast and colon cancer cell lines was determined according to the methods set forth in the Table 11.

[3] = system: SW1222; assay: Effect of HA on cell proliferation; format: cell-based, human; conditions: 3 days constant exposure, 100 nM
Protocol: as §1

[4] = system: MDA MB 435; assay: Effect of HA on cell proliferation; format: cell-based, human
Protocol: as §1

[5] = system: HCT-116; assay: Effect of HA on cell proliferation; format: cell-based, human; conditions: 3 days constant exposure, 100 nM
Protocol: as §1

[6] = system: LIM 2099; assay: Effect of HA on cell proliferation; format: cell-based, human; conditions: 3 days constant exposure, 100 nM
Protocol: as §1

[7] = system: MDA MB 468; assay: Effect of HA on cell proliferation; format: cell-based, human
Protocol: as §1

[8] = system: MDA MB 231; assay: Effect of HA on cell proliferation; format: cell-based, human
Protocol: as §1

[9] = system: SK-CO-1; assay: Effect of HA on cell proliferation; format: cell-based, human; conditions: 3 days constant exposure, 100 nM
Protocol: as §1

[10] = system: ZR-75-1; assay: Effect of HA on cell proliferation; format: cell-based, human; conditions: 3 days constant exposure
Protocol: as §1

[11] = system: SW620; assay: Effect of HA on cell proliferation; format: cell-based, human; conditions: 3 days constant exposure, 100 nM
Protocol: as §1

[12] = system: HT-29; assay: Effect of HA on cell proliferation; format: cell-based, human; conditions: 3 days constant exposure, 100 nM
Protocol: as §1

[13] = system: MDA-MB-231; assay: Breast cancer cell count assay (Coulter counter), HA ± adriamycin; format: cell-based, human
Protocol: (§2) Cell lines MDA-MB-468, MDA-MB-435 and MDA-MB-231 were routinely grown and subcultured as a monolayer in 175 cm^2 culture flasks in Leibovitz L-15 Medium supplemented with 10% Foetal calf serum (FCS) and antibiotic/antimycotic reagents at 37° C. in humidity controlled incubator with 100% (v/v) air.
(§3) For the tests, MDA MB-468, MDA MB-231 and MDA MB-435 cell line were grown in 90% Leibovitz L-15 medium supplemented with 10% FCS. When confluent the cultures were washed 1× in HBSS and trypsinised in 0.25% trypsin/0.05% EDTA. The cell suspensions were counted with an automated cell counter (ZM-2 Coulter Counter) by adding 15 mL saline+0.2 ml of cell suspension. • Cells were resuspended to a number of:
(§4) The cells were plated into 48-well plates (1 cm^2 surface area) by adding 1 ml of cell suspension per well. • Cells were allowed to attach for 24 h, before the media was removed, monolayers washed. The test media was; growth media containing 0-1 μM adriamycin or 5-fluorouracil with or without the addition of 0-1 μM of HA (modal Mw 750,000).
(§5) The cells were exposed to the several combinations of HA and drugs for different times and at different concentrations (Table 3).
(§6) After the incubation and growth periods the cell monolayers were washed with HBSS and trypsinised in 0.25% trypsin/0.05% EDTA. The cell suspensions were counted with an automated cell counter (ZM-2 Coulter Counter) by adding 15 mL saline+0.2 ml of cell suspension. Results were expressed as % of no drug control which was calculated as: […]

[14] = system: MDA-MB-435; assay: as above; format: cell-based, human
Protocol: as §2, §3, §4, §5, §6

[15] = system: MDA-MB-468; assay: as above; format: cell-based, human
Protocol: as §2, §3, §4, §5, §6

[16] = system: human breast cancer cells; assay: Breast cancer cell count assay, cell line not specified or pooled; format: cell-based; conditions: HA incubated 30 min, 1 h, 24 h or 3 days
Protocol: The cell suspensions were counted with an automated cell counter (ZM-2 Coulter Counter) by adding 15 mL saline+0.2 ml of cell suspension. • Cells were resuspended to a number of: […] The cell suspensions were counted with an automated cell counter (ZM-2 Coulter Counter) by adding 15 mL saline+0.2 ml of cell suspension. Results were expressed as % of no drug control which was calculated as: […]

[17] = 6-week study: treatment toxicity (body mass, blood, organ mass, survival)
Text: Animals were monitored daily for GI tract upset such as diarrhea and weekly for more severe toxicity manifestations such as weight loss.
As one of the major toxicities associated with 5-FU treatment is depression of the bone marrow and subsequent drop in white blood cells it was necessary to assess any treatment associated blood toxicity. Upon anaesthetizing the animals, blood was collected from the heart or great vessels using a needle and syringe. Estimation of white blood cell number by making a 1/50 dilution of blood in mouse tenacity saline (M) and counting it on a haemocytometer. A differential blood count was performed by counting-neutrophils, lymphocytes, and erythrocytes. The total estimation of blood cell sub-populations was compared to published data for mouse blood.
The mass of each organ was calculated as a % of the overall net body weight, and compared to the organ masses of the saline only group (Group 1).

[18] = 24 H HA followed by growth for 3 days, 100 nM
[19] = 30 min HA followed by growth for 3 days, 100 nM
[20] = 3 days constant exposure, 100 nM
[21] = 3 days constant exposure, 500 nM
[22] = 3 days constant exposure, 10 μM

## hyaluronan [HA]
[1]
  % T/C versus saline: lower % T/C
[2]
  Effect of HA on cell proliferation (mean ± standard deviation): 89 ± 5 (n = 8) % of untreated control
[3]
  Effect of HA on cell proliferation (mean ± standard deviation): 99 ± 1 (n = 8) % of untreated control
[4]; [18]
  Effect of HA on cell proliferation (mean ± standard deviation): 111 ± 6 (n = 8) % of untreated control
[4]; [19]
  Effect of HA on cell proliferation (mean ± standard deviation): 86 ± 6 (n = 12) % of untreated control
[4]; [20]
  Effect of HA on cell proliferation (mean ± standard deviation): 85 ± 17 (n = 16) % of untreated control
[4]; [21]
  Effect of HA on cell proliferation (mean ± standard deviation): 55 ± 6 (n = 8) % of untreated control
[4]; [22]
  Effect of HA on cell proliferation (mean ± standard deviation): 101 ± 1(n = 8) % of untreated control
[5]
  Effect of HA on cell proliferation (mean ± standard deviation): 92 ± 0 (n = 8) % of untreated control
[6]
  Effect of HA on cell proliferation (mean ± standard deviation): 105 ± 2 (n = 16) % of untreated control
[7]; [18]
  Effect of HA on cell proliferation (mean ± standard deviation): 84 ± 1 (n = 4) % of untreated control
[7]; [19]
  Effect of HA on cell proliferation (mean ± standard deviation): 97 ± 15 (n = 12) % of untreated control
[7]; [20]
  Effect of HA on cell proliferation (mean ± standard deviation): 99 ± 6 (n = 20) % of untreated control
[7]; [21]
  Effect of HA on cell proliferation (mean ± standard deviation): 95 ± 3 (n = 8) % of untreated control
[7]; [22]
  Effect of HA on cell proliferation (mean ± standard deviation): 99 ± 6 (n = 20) % of untreated control
[8]; [19]
  Effect of HA on cell proliferation (mean ± standard deviation): 86 ± 3 (n = 8) % of untreated control
[8]; [20]
  Effect of HA on cell proliferation (mean ± standard deviation): 106 ± 11 (n = 20) % of untreated control
[8]; [21]
  Effect of HA on cell proliferation (mean ± standard deviation): 100 ± 1 (n = 8) % of untreated control
[8]; [22]
  Effect of HA on cell proliferation (mean ± standard deviation): 101 ± 5 (n = 8) % of untreated control
[9]
  Effect of HA on cell proliferation (mean ± standard deviation): 95 ± 3 (n = 8) % of untreated control
[10]; 100 nM
  Effect of HA on cell proliferation (mean ± standard deviation): 103 ± 4 (n = 20) % of untreated control
[10]; 500 nM
  Effect of HA on cell proliferation (mean ± standard deviation): 102 ± 1 (n = 8) % of untreated control
[10]; 10 μM
  Effect of HA on cell proliferation (mean ± standard deviation): 100 ± 3 (n = 8) % of untreated control
[11]
  Effect of HA on cell proliferation (mean ± standard deviation): 97 ± 1 (n = 8) % of untreated control
[12]
  Effect of HA on cell proliferation (mean ± standard deviation): 82 ± 14 (n = 8) % of untreated control
[13]; HA exposure 30 min 100 nM
  Cytotoxic effect of HA, change in cell number: −27%
[13]; HA exposure 30 min 1000 nM
  Cytotoxic effect of HA, change in cell number: −26%
[13]; HA exposure 1 h 100 nM
  Cytotoxic effect of HA, change in cell number: −21%
[13]; HA exposure 24 h 100 nM
  Cytotoxic effect of HA, change in cell number: −8%
[13]; HA exposure 3 days 100 nM
  Cytotoxic effect of HA, change in cell number: −23%
[14]; HA exposure 30 min 100 nM
  Cytotoxic effect of HA, change in cell number: −12%
[14]; HA exposure 30 min 500 nM
  Cytotoxic effect of HA, change in cell number: 0
[14]; HA exposure 1 h 100 nM
  Cytotoxic effect of HA, change in cell number: −4%
[14]; HA exposure 24 h 100 nM
  Cytotoxic effect of HA, change in cell number: −12%
[14]; HA exposure 3 days 100 nM
  Cytotoxic effect of HA, change in cell number: −22%
[15]; HA exposure 30 min 100 nM
  Cytotoxic effect of HA, change in cell number: −5%
[15]; HA exposure 30 min 500 nM
  Cytotoxic effect of HA, change in cell number: −22%
[15]; HA exposure 30 min 1000 nM
  Cytotoxic effect of HA, change in cell number: +2%
[15]; HA exposure 1 h 100 nM
  Cytotoxic effect of HA, change in cell number: +3%
[15]; HA exposure 24 h 100 nM
  Cytotoxic effect of HA, change in cell number: −5%
[15]; HA exposure 3 days 100 nM
  Cytotoxic effect of HA, change in cell number: −29%
[16]
  reduction in breast cancer cell number: 0-29%
[17]
  organ mass toxicity: did not result in any dramatic toxicity
[17]; HA as sole agent or chemosensitizer
  body mass / well being versus 5-FU treatment group: did not loose weight, but maintained its body mass
